Where “and” joins values, the source holds several entries; their conditions need not be identical. Equal entries are not always repeated.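 Values below derive from 48-hour exposures of cells grown in 96-well plates, with endpoints linearly interpolated between the two concentrations bracketing the appropriate inhibition level. GI50 = concentration required for 50% inhibition of growth. TGI: total growth inhibition.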

For the first experiment, the system named is ACHN renal. Kind of experiment: growth of human tumour cells (NCI), 48 h.
For `CCCC1C(=O)CCc2c(OC)ccc(OC)c21` (centres undefined), the TGI was > 100 µM.
Same read-out and setting: as for `CCOC(=O)Cn1c(C(F)(F)F)nc2nc(Cl)c(Cl)nc21`, the figure is > 67.9 µM.
`O=C1NC(=NCCc2cccc(F)c2)S/C1=C\c1ccc2ncccc2c1`: the GI50 is 10.2 µM and the TGI was > 25 µM.
In the case of `COc1cc2c(c3oc4c(O)cccc4c(=O)c13)CC(C(C)(O)CO)O2` (centres undefined), the TGI was > 100 µM.
Consider `OCc1cc2ccccc2c2c3c(ccc12)OCO3`, for which the GI50 is 32.1 µM and the TGI was found to be 141 µM.
For the compound `COc1cc2c(cc1OCCCCN1CCN(CC(=O)Nc3ccc(Cl)cc3C(=O)c3ccccc3Cl)CC1)N=CC1CCCN1C2=O` (centres undefined), the GI50 was 0.431 µM and the TGI was determined as 1.01 µM.
`OC1CSSC1Cn1cnc2c(Nc3ccc(OCc4cccc(F)c4)c(Cl)c3)ncnc21` (centres undefined): the GI50 is 1.7 µM and the TGI was 5.67 µM.

Another experiment relates to BT-549 breast. Kind of experiment: growth of human tumour cells (NCI), 48 h.
With `CCOC(=O)Cn1c(C(F)(F)F)nc2nc(Cl)c(Cl)nc21`, the TGI is > 100 µM.
For `O=C1NC(=NCCc2cccc(F)c2)S/C1=C\c1ccc2ncccc2c1`, the GI50 was 10.6 µM and the TGI was > 25 µM.
Consider `COc1cc2c(c3oc4c(O)cccc4c(=O)c13)CC(C(C)(O)CO)O2` (centres undefined), for which the TGI was > 100 µM.
Turning to `OCc1cc2ccccc2c2c3c(ccc12)OCO3`, the GI50 was 27.1 µM and the TGI was 76.3 µM.
Take `COc1cc2c(cc1OCCCCN1CCN(CC(=O)Nc3ccc(Cl)cc3C(=O)c3ccccc3Cl)CC1)N=CC1CCCN1C2=O` (centres undefined): the GI50 is 0.292 µM and the TGI was 0.799 µM.
Take `OC1CSSC1Cn1cnc2c(Nc3ccc(OCc4cccc(F)c4)c(Cl)c3)ncnc21` (centres undefined): the GI50 was 4.98 µM and the TGI came to 12.1 µM.

A further experiment deals with KM20L2 colon. Put plainly: growth of human tumour cells (NCI), 48 h.
For the compound `Cc1c(C(=O)CC(=O)C(=O)Nc2ccccc2C(F)(F)F)[n+](=O)c2ccccc2n1[O-]`, the TGI was 92.3 µM.
For the compound `Cc1nc2c(ccc3ncccc32)[nH]1`, the TGI is > 100 µM.
Still for that read-out and setting: the same measure for `C1=C2/CC[C@H](Sc3ccccc3)C2C2(CCCCC/1)OCCO2` (some centres undefined): 37.1 µM; for `O=C(CCc1nc(=S)[nH][nH]1)Nc1cc(Cl)c(Cl)cc1Cl`: > 100 µM; for `CN(C)C(=S)N=C(Nc1ccccc1)Nc1ccccc1`: > 100 µM.
For the compound `Nc1ccccc1S(=O)(=O)N(CC(=O)O)c1ccccc1`, the TGI is > 100 µM.
With `CC1(C)C(=O)/C=C\C(=O)C(C)(C)C2=CC=C(O2)C(C)(C)C(=O)/C=C\C(=O)C(C)(C)C2=CC=C1O2`, the TGI is > 100 µM.
In the case of `COc1ccccc1N1C(=O)C2c3[nH]c4ccccc4c3C3CCC(C(C)(C)C)CC3C2C1=O` (centres undefined), the TGI was > 100 µM.
Regarding `Cc1cc(NS(=O)(=O)c2ccc(Nc3c4ccccc4nc4c(C(=O)N5CCN(CCOS(C)(=O)=O)CC5)cccc34)cc2)no1`, the TGI is > 100 µM.
Still for that read-out and setting: as for `O=C(O)CCC(NC(=O)c1ccc(Nc2nc3ccccc3nc2-c2cccs2)cc1)C(=O)O` (centres undefined), the figure is > 100 µM; as for `COc1cc2ccnc([C@@H](OC(=O)c3ccccc3)c3ccc(OC)c(OC)c3OC)c2cc1OC`, > 100 µM.
For `CCn1c(C)nn2c(=O)c3ccccc3nc2c1=O`, the TGI was > 100 µM.
For `COC(=O)/C(C#N)=C1\NC(=O)c2ccccc21`, the TGI was > 100 µM.
On to `O=C(O)CCNCCCNCCC(=O)O`, for which the TGI was > 100 µM.
In the case of `CC(=O)[CH-]C(=O)c1ccccc1.CC(=O)[CH-]C(=O)c1ccccc1.CN(C)c1ccc([O-])cc1.CN(C)c1ccc([O-])cc1.Cl.[Ti+4]`, the GI50 is 20.4 µM and the TGI was > 31.6 µM.
Regarding `NC1=NCCC1(c1ccccc1)c1ccccn1` (centres undefined), the TGI is > 100 µM.
Take `CCCCCCCCCCCC(=O)OCCOCCOCCOCCOCCOCc1ccccc1`: the TGI is > 100 µM.
On to `CCCCCCCCCCCCCC(=O)OC(/C=C/C(C)C)C(O)C(O)C(OC)C(=O)NC1CCCCN(C)C1=O` (centres undefined), for which the GI50 is > 49 µM; the TGI was 7.64 µM and > 49 µM.
In the case of `CCOC(=O)CCC1(C(=O)OCC)CCCCC1=O` (centres undefined), the TGI is > 100 µM.
Take `COC(=O)c1ccccc1NC(=O)C(=O)Cc1nc2c3c(ccc2[nH]c1=O)C(=O)c1ccccc1C3=O`: the TGI is > 100 µM.
Still for that read-out and setting: the same measure for `CCOC(=O)C(C)(C)Oc1ccc2c(-c3ccccc3)cc(=O)oc2c1`: > 100 µM; for `CCCC1C(=O)CCc2c(OC)ccc(OC)c21` (centres undefined): > 100 µM.

Another experiment deals with HOP-62 NSCLC. Put plainly: growth of human tumour cells (NCI), 48 h.
For the compound `Cc1c(C(=O)CC(=O)C(=O)Nc2ccccc2C(F)(F)F)[n+](=O)c2ccccc2n1[O-]`, the TGI was > 100 µM.
For `Cc1cc(N(CCC#N)CCC#N)ccc1N=Nc1ccc(S(N)(=O)=O)cc1`, the TGI is > 100 µM.
For the compound `Cc1nc2c(ccc3ncccc32)[nH]1`, the TGI is > 100 µM.
The compound `C1=C2/CC[C@H](Sc3ccccc3)C2C2(CCCCC/1)OCCO2` (some centres undefined) came in with a TGI of 58.2 µM.
Still for that read-out and setting: the same measure for `O=C(CCc1nc(=S)[nH][nH]1)Nc1cc(Cl)c(Cl)cc1Cl`: > 100 µM.
On the same count and under the same terms, as for `CN(C)C(=S)N=C(Nc1ccccc1)Nc1ccccc1`, the figure is > 100 µM; as for `CC1(C)C(=O)/C=C\C(=O)C(C)(C)C2=CC=C(O2)C(C)(C)C(=O)/C=C\C(=O)C(C)(C)C2=CC=C1O2`, > 100 µM; as for `COc1ccccc1N1C(=O)C2c3[nH]c4ccccc4c3C3CCC(C(C)(C)C)CC3C2C1=O` (centres undefined), > 100 µM.
On the same count and under the same terms, the same measure for `Cc1cc(NS(=O)(=O)c2ccc(Nc3c4ccccc4nc4c(C(=O)N5CCN(CCOS(C)(=O)=O)CC5)cccc34)cc2)no1`: > 100 µM.
Take `O=C(O)CCC(NC(=O)c1ccc(Nc2nc3ccccc3nc2-c2cccs2)cc1)C(=O)O` (centres undefined): the TGI is > 100 µM.
The same measure, in the same setting: the same measure for `CCn1c(C)nn2c(=O)c3ccccc3nc2c1=O`: > 100 µM; for `COC(=O)/C(C#N)=C1\NC(=O)c2ccccc21`: > 100 µM; for `O=C(O)CCNCCCNCCC(=O)O`: > 100 µM.
In the case of `CC(=O)[CH-]C(=O)c1ccccc1.CC(=O)[CH-]C(=O)c1ccccc1.CN(C)c1ccc([O-])cc1.CN(C)c1ccc([O-])cc1.Cl.[Ti+4]`, the GI50 is 21.8 µM and the TGI is > 31.6 µM.
As to `NC1=NCCC1(c1ccccc1)c1ccccn1` (centres undefined), the TGI was > 100 µM.
For the compound `CCCCCCCCCCCC(=O)OCCOCCOCCOCCOCCOCc1ccccc1`, the TGI was > 100 µM.
Same read-out and setting: as for `CCCCCCCCCCCCCC(=O)OC(/C=C/C(C)C)C(O)C(O)C(OC)C(=O)NC1CCCCN(C)C1=O` (centres undefined), the figure is 6.54 µM and > 49 µM; as for `CCOC(=O)CCC1(C(=O)OCC)CCCCC1=O` (centres undefined), > 100 µM.

The values are drawn from PubChem BioAssay (NCI).
